In US20240217964A1, “QUINUCLIDINONE ANALOGUES AS ANTICANCER AGENTS” (Newave Pharmaceutical Inc., priority 2021, published 2024):

Legend:
RS4;11-G101V cell line = test: In vitro anti-proliferation assay (ATPlite) in RS4;11 with G101V mutation; assay type: cell-based; details: about 72 hours incubation
Method: (§1) Cell antiproliferation was assayed by PerkinElmer ATPlite™ Luminescence Assay System. Briefly, the various test cancer cell lines were plated at a density of about 1×10^4 cells per well in Costar 96-well plates, and were incubated with different concentrations of compounds for about 72 hours in medium supplemented with 5% FBS or 10% normal human serum(NHS). One lyophilized substrate solution vial was then reconstituted by adding 5 mL of substrate buffer solution, and was agitated gently until the solution was homogeneous. About 50 μL of mammalian cell lysis solution was added to 100 μL of cell suspension per well of a microplate, and the plate was shaken for about five minutes in an orbital shaker at ˜700 rpm. This procedure was used to lyse the cells and to stabilize the ATP. Next, 50 μL substrate solution was added to the wells and microplate was shaken for five minutes in an orbital shaker at ˜700 rpm. Finally, the luminescence was measured by a PerkinElmer TopCount® Microplate Scintillation Counter. Such assays, carried out with a range of doses of test compounds, allowed the determination of the cellular anti-antiproliferative IC50 of the compounds of the present invention. The following table lists the IC50 values of certain compounds of the invention.
The following table lists the IC50 values of the in vitro anti-proliferation assay in RS4;11-G101V cell line.

CEM(R248Q) = test: In vitro anti-proliferation assay (ATPlite) in p53 mutant cell line CEM(R248Q); assay type: cell-based; details: Mutation R175H, about 72 hours incubation
Method: as §1
(§2) The following table lists the IC50 values of another in vitro anti-proliferation assay in different p53 mutant cell lines.

KASUMI-1 = test: In vitro anti-proliferation assay (ATPlite) in p53 mutant cell line KASUMI-1; assay type: cell-based; details: Cell line KASUMI-1, Mutation R248Q, about 72 hours incubation
Method: as §1, §2

SUP-T1 = test: In vitro anti-proliferation assay (ATPlite) in p53 mutant cell line SUP-T1; assay type: cell-based; details: Cell line SUP-T1, Mutation R273H, about 72 hours incubation
Method: as §1, §2

DB = test: In vitro anti-proliferation assay (ATPlite) in p53 mutant cell line DB; assay type: cell-based; details: Mutation R248Q, about 72 hours incubation
Method: as §1, §2

Mice PK study = assay type: in vivo; details: CD-1 mouse
Method: The pharmacokinetics of compounds were evaluated in CD-1 mouse via Intravenous and Oral Administration. The IV dose was administered as a slow bolus in the Jugular vein, and oral doses were administered by gavage. The formulation for IV dosing was 5% DMSO in 20% HPBCD in water, and the PO formulation was 2.5% DMSO, 10% EtOH, 20% Cremphor EL, 67.5% D5W. The PK time point for the IV arm was 5, 15, 30 min, 1, 2, 4, 6, 8, 12, 24 hours post dose, and for PO arm was 15, 30 min, 1, 2, 4, 6, 8, 12, 24 hours post dose. Approximately 0.03 mL blood was collected at each time point. Blood of each sample was transferred into plastic micro centrifuge tubes containing EDTA-K2 and collect plasma within 15 min by centrifugation at 4000 g for 5 minutes in a 4° C. centrifuge. Plasma samples were stored in polypropylene tubes. The samples were stored in a freezer at −75±15° C. prior to analysis. Concentrations of compounds in the plasma samples were analyzed using a LC-MS/MS method. WinNonlin (Phoenix™, version 6.1) or other similar software was used for pharmacokinetic calculations. The following pharmacokinetic parameters were calculated, whenever possible from the plasma concentration versus time data: IV administration: Co, CL, Vd, T1/2, AUCinf, AUClast, MRT, Number of Points for Regression; PO administration: Cmax, Tmax, T1/2, AUCinf, AUClast, F %, Number of Points for Regression. The pharmacokinetic data was described using descriptive statistics such as mean, standard deviation.

Row | Structure (SMILES) | IC50 (RS4;11-G101V cell line) [nM] | IC50 (CEM(R248Q)) [nM] | IC50 (KASUMI-1) [nM] | IC50 (SUP-T1) [nM] | IC50 (DB) [nM] | IC50 (KASUMI-1; Homo sapiens) [nM] | IC50 (SUP-T1; Homo sapiens) [nM] | IC50 (DB; Homo sapiens) [nM] | Bioavailabilty (Mice PK study; Oral, 100 mpk) [%] | AUClas (Mice PK study; Oral, 100 mpk, plasma) | bioavailability (in words) (Mice PK study; oral)
1 | COC[C@@]1(CO)C(=O)[C@@H]2CC[N@@]1[C@@H](C)C2 [Example 18, (1S,2S,4R,6S)-2-(hydroxymethyl)-2-(methoxymethyl)-6-methylquinuclidin-3-one] | 1800 | 690 | 2000 | 2600 | 2900 |  |  |  |  |  | 
2 | COC[C@@]1(CO)C(=O)C2CCN1CC2 [ARP-246-S, (S)-2-(hydroxymethyl)-2-(methoxymethyl)quinuclidin-3-one, reference compound] |  | 495 |  |  |  | 1000 | 4800 | 3000 |  |  | 
3 | COC[C@]1(CO)C(=O)[C@H]2CC[N@]1[C@H](C)C2 [Example 17, (1R,2R,4S,6R)-2-(hydroxymethyl)-2-(methoxymethyl)-6-methylquinuclidin-3-one] | 730 | 560 | 1000 | 2100 | 3700 |  |  |  | 79 | 26,093 h*ng/ml | excellent bioavailable
4 | COC[C@@]1(CO)C(=O)[C@H]2CC[N@]1[C@H](C)C2 [Example 28, (1R,2S,4S,6R)-2-(hydroxymethyl)-2-(methoxymethyl)-6-methylquinuclidin-3-one] |  | 4500 | 7500 | 12600 | 18400 |  |  |  |  |  | 
5 | COCC1(CO)C(=O)C2CCN1CC2 (centres unmarked) [APR-246, reference compound] | 1760 |  |  |  |  |  |  |  |  |  | 
6 | COC[C@]1(CO)C(=O)[C@@H]2CC[N@@]1[C@@H](C)C2 [Example 27, (1S,2R,4R,6S)-2-(hydroxymethyl)-2-(methoxymethyl)-6-methylquinuclidin-3-one] |  | 1600 | 2600 | 3300 | 3300 |  |  |  |  |  | 
